Values of other authors in patent publication US20190010158A1, “ANTITUMOR EFFECT POTENTIATOR COMPRISING PYRROLOPYRIMIDINE COMPOUND” (TAIHO PHARMACEUTICAL CO., LTD, priority 2015, published 2019).

Experiments:
[1] = background art, Non-patent Literature 7; decrease in plasma concentration; cited from earlier work
carbonic anhydrase II = carbonic anhydrase II (Homo sapiens, UniProt P00918); details: background art, Non-patent Literature 8; cited from earlier work

NS(=O)(=O)OC[C@@H]1C[C@@H](n2ccc3c(N[C@H]4CCc5ccccc54)ncnc32)C[C@@H]1O [MLN4924, N-[(1S)-1-indanyl]-7-[(1R)-3α-hydroxy-4α-(sulfamoyloxymethyl)cyclopentyl]-7H-pyrrolo[2,3-d]pyrimidin-4-amine]
transfer of administered drug to red blood cells in the blood [1]: transferred to red blood cells | inhibition of carbonic anhydrase II activity (carbonic anhydrase II): inhibits the activity
